Measurements as given in the supplement of paper PMC9938120.

Assays:
Test in all cases: drug sensitivity score (DSS3, normalised partial AUC of % inhibition dose-response) (DSS (score)); higher = more sensitive (stronger inhibition of viability); extreme values may be limits of the assay
[1] = tested on: FMOC02_1 (patient-derived low-grade serous ovarian cancer cells); conditions: 72 h; library: FO5A; assay format: 2D, 384-well, CellTiter-Glo
Outline: (§1)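 On 384-well flat clear-bottom plates carrying compounds at five concentrations across a 10,000-fold range, patient-derived ovarian cancer cells below passage 10 were incubated for 72 h at 37 °C with 5% CO2. CellTiter-Glo readout of viability was processed in Breeze. A higher drug sensitivity score, defined as the partial area under the percent-inhibition dose-response curve divided by the log of the upper asymptote, means greater sensitivity.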

[2] = tested on: FMOC02_2 (patient-derived low-grade serous ovarian cancer cells); conditions: 72 h; library: FO5A; assay format: 2D, 384-well, CellTiter-Glo
Outline: as §1

[3] = tested on: FMOC02_3 (patient-derived low-grade serous ovarian cancer cells); conditions: 72 h; library: FO5A; assay format: 2D, 384-well, CellTiter-Glo
Outline: as §1

[4] = tested on: FMOC03 (patient-derived mucinous ovarian cancer cells); conditions: 72 h; library: FO5A; assay format: 2D, 384-well, CellTiter-Glo
Outline: as §1

[5] = tested on: FMOC04 (patient-derived high-grade serous ovarian cancer cells); conditions: 72 h; library: FO5A; assay format: 2D, 384-well, CellTiter-Glo
Outline: as §1

[6] = tested on: FMOC06 (patient-derived mucinous ovarian cancer cells); conditions: 72 h; library: FO5A; assay format: 2D, 384-well, CellTiter-Glo
Outline: as §1

[7] = tested on: FMOC09 (patient-derived high-grade serous ovarian cancer cells); conditions: 72 h; library: FO5A; assay format: 2D, 384-well, CellTiter-Glo
Outline: as §1

[8] = tested on: FMOC11 (patient-derived high-grade serous ovarian cancer cells); conditions: 72 h; library: FO5A; assay format: 2D, 384-well, CellTiter-Glo
Outline: as §1

[9] = tested on: FMOC14 (patient-derived high-grade serous ovarian cancer cells); conditions: 72 h; library: FO5A; assay format: 2D, 384-well, CellTiter-Glo
Outline: as §1

[10] = tested on: FMOC17 (patient-derived low-grade serous ovarian cancer cells); conditions: 72 h; library: FO5A; assay format: 2D, 384-well, CellTiter-Glo
Outline: as §1

[11] = tested on: FMOC22 (patient-derived mucinous ovarian cancer cells); conditions: 72 h; library: FO5A; assay format: 2D, 384-well, CellTiter-Glo
Outline: as §1

[12] = tested on: FMOC24 (patient-derived high-grade serous ovarian cancer cells); conditions: 72 h; library: FO5A; assay format: 2D, 384-well, CellTiter-Glo
Outline: as §1

[13] = tested on: FMOC25_1 (patient-derived low-grade serous ovarian cancer cells); conditions: 72 h; library: FO4B; assay format: 2D, 384-well, CellTiter-Glo
Outline: as §1

[14] = tested on: FMOC25_2 (patient-derived low-grade serous ovarian cancer cells); conditions: 72 h; library: FO5A; assay format: 2D, 384-well, CellTiter-Glo
Outline: as §1

[15] = tested on: FMOC27 (patient-derived low-grade serous ovarian cancer cells); conditions: 72 h; library: FO5A; assay format: 2D, 384-well, CellTiter-Glo
Outline: as §1

[16] = tested on: FMOC28 (patient-derived low-grade serous ovarian cancer cells); conditions: 72 h; library: FO5A; assay format: 2D, 384-well, CellTiter-Glo
Outline: as §1

Row | Compound | drug sensitivity score [1] | drug sensitivity score [2] | drug sensitivity score [3] | drug sensitivity score [4] | drug sensitivity score [5] | drug sensitivity score [6] | drug sensitivity score [7] | drug sensitivity score [8] | drug sensitivity score [9] | drug sensitivity score [10] | drug sensitivity score [11] | drug sensitivity score [12] | drug sensitivity score [13] | drug sensitivity score [14] | drug sensitivity score [15] | drug sensitivity score [16]
1 | CCOc1ccn(-c2ccc(F)cc2)c(=O)c1C(=O)Nc1ccc(Oc2ccnc(N)c2Cl)c(F)c1 | 0 | 0.9 | 0 | 0 | 0 | 0 | 0 | 0 | 0 | 0 | 0 | 0 | 0 | 0 | 0 | 0
2 | CCn1c(-c2nonc2N)nc2cnc(Oc3cccc(NC(=O)c4ccc(OCCN5CCOCC5)cc4)c3)cc21 | 4.8 | 1.6 | 6.3 | 0.4 | 0.6 | 1.3 | 2.3 | 3.7 | 2.2 | 2 | 1.7 | 2.3 | 0 | 3.8 | 2.9 | 0.4
3 | CCn1c(C(=O)N(C2CC2)C2CC2)cc2c3c(ncn3C)c(Nc3cc(C)n(C)n3)nc21 | 0.6 | 1.4 | 4.7 | 0.9 | 0 | 0 | 2.1 | 0.1 | 0 | 2.8 | 0 | 1.05 | 0 | 0.4 | 0.8 | 0.9
4 | CN(c1ncccc1CNc1nc(Nc2ccc3c(c2)CC(=O)N3)ncc1C(F)(F)F)S(C)(=O)=O | 6.6 | 9.4 | 9.5 | 7.1 | 5.3 | 6.6 | 5.1 | 4.9 | 3.6 | 7 | 5.7 | 5.3 | 3.9 | 7.8 | 5.2 | 7.9
5 | CNC(=O)c1ccc(C)c(-n2c(C)cc(OCc3ccc(F)cc3F)c(Br)c2=O)c1 | 0 | 0 | 0 | 0 | 0 | 0 | 0 | 0 | 0 | 0.3 | 0 | 0 | 0 | 0 | 0 | 0
6 | CNc1nc(-c2ccc3c(N)n[nH]c3c2)cc(N2C[C@@H](C(=O)NC3CCCCC3)CC[C@H]2C)n1 | 3.8 | 8.7 | 0.8 | 0 | 0.5 | 4.2 | 0 | 0 | 0.6 | 0 | 0 | 0 | 6.9 | 5.7 | 1.4 | 6
7 | COc1cc2ncnc(Oc3cccc(NC(=O)Nc4cc(C(C)(C)C(F)(F)F)on4)c3)c2cc1OC | 4 | 6.6 | 4.4 | 0 | 0 | 0.3 | 1.3 | 3.3 | 0.3 | 0 | 0 | 0 | 0 | 1.1 | 0 | 0
8 | COc1ccc(Cn2ccc3ccc(C(=O)NO)cc32)cc1 | 1 | 3.4 | 1.8 | 1.1 | 0 | 0.2 | 1.1 | 0.6 | 1.1 | 1.4 | 0.4 | 0.4 | 0.8 | 2.5 | 0.2 | 4.9
9 | C[C@@H](Oc1ccc2[nH]nc(/C=C/c3cnn(CCO)c3)c2c1)c1c(Cl)cncc1Cl | 6.3 | 4.2 | 3.9 | 3.1 | 1.8 | 6 | 3.3 | 2.4 | 0 | 4.1 | 3.5 | 1.7 | 1 | 6.8 | 2.4 | 0.6
10 | C[C@@H]1CN(CC(=O)Nc2ccc3c(c2)Cc2cccc(-c4cc(=O)cc(N5CCOCC5)o4)c2S3)C[C@H](C)O1 | 0.5 | 0.5 | 0.2 | 0.9 | 1.9 | 0.6 | 0 | 1 | 0.3 | 0.2 | 0.8 | 5.75 | 3.4 | 1 | 0 | 0
11 | C[C@H]1Oc2cc(cnc2N)-c2c(nn(C)c2C#N)CN(C)C(=O)c2ccc(F)cc21 | 0.8 | 3.2 | 3.1 | 0 | 0 | 3.4 | 1.6 | 0 | 0 | 0 | 0 | 1.6 | 0 | 1.6 | 0 | 0
12 | Cc1c(Cn2c(C)nc3c(C(=O)O)cc(N4CCOCC4)cc32)cccc1C(F)(F)F | 0 | 6.3 | 2.2 | 0.5 | 0.65 | 0.6 | 0 | 0 | 2.5 | 0 | 0 | 3 | 3.5 | 11.4 | 0.1 | 7.2
